Test results taken from patent US20220280594A1, “APPLICATION OF POLYPEPTIDE OR DERIVATIVE THEREOF” (CHENGDU HUITAI BIOMEDICINE CO., LTD., priority 2019, published 2022).
Ends that are not written are not given here. PEG = not defined here

Tests used:
[1] = test system: human non-small cell lung cancer cells (A549); experiment: scratch assay, migration of A549 cells; format: cell-based; conditions: A549, 10 μM, 48 hours; control group 75.31 ± 8.19
Method: (§1) In the scratch assay, the cell migration rate was negatively correlated with the inhibitory effect of the drug component on tumor cell migration ability. The cell migration inhibition experiment was described as follows: tumor cells were cultured in vitro, cells in logarithmic growth phase were collected and seeded evenly in a 24-well plate at a density of 1-2×10^5 cells/well; the cells were cultured in a cell incubator until a monolayer was formed; a scratch tool was used to make a “-” (straight) scratch on the monolayer of cells; the cells were washed 1-3 times with PBS, and a medium (with 2% fetal bovine serum) containing specific test components was added to the culture. Experimental grouping: PBS control group; polypeptide or derivative thereof treatment group (N1-N54), 10 μM. Three independent parallel wells were set up in each group, and the cells were cultured continuously in a cell incubator for 48 hours. […] At least 3 representative images for each well were taken. ImageJ software was used to count the migration distance of the cells, and the cell migration rate was calculated as: cell migration rate (%)=(width of original scratch−width of current scratch)/width of original scratch×100.
This example was a scratch assay to evaluate the inhibitory effect of the polypeptide or derivative thereof (N1-N54) on the migration ability of human non-small cell lung cancer (A549). The experimental method was as described in Example 2.

[2] = test system: human lung cancer cells (95D); experiment: scratch assay, migration of 95D cells; format: cell-based; conditions: 10 μM, 48 hours, control group 55.3 ± 3.19
Method: as §1
This example was a scratch assay to evaluate the inhibitory effect of the polypeptide or derivative thereof (N1-N54) on the migration ability of human lung cancer cells (95D). The experimental method was as described in Example 2.

[3] = test system: human lung squamous carcinoma cells (NCI-H226); experiment: scratch assay, migration of NCI-H226 cells; format: cell-based; conditions: NCI-H226, 10 μM, 48 hours; control group 65.31 ± 3.19
Method: as §1
This example was a scratch assay to evaluate the inhibitory effect of the polypeptide or derivative thereof (N1-N54) on the migration ability of human lung squamous carcinoma cells (NCI-H226). The experimental method was as described in Example 2.

[4] = test system: human lung cancer cells (A549) subcutaneous xenograft; experiment: lung cancer subcutaneous xenograft animal model, intravenous injection; format: in vivo, mice (BALB/c-nu/nu); conditions: intravenous 60 mg/kg once every other day, 20 days; for Weight of tumor (g) (mean ± SD): control 2.53 ± 0.17; for Volume of tumor (mm^3) (mean ± SD): control 3373.26 ± 581.44
Method: Experimental animals: 4-6 weeks old female immunodeficiency mice (BALB/c-nu/nu, Beijing Vital River Laboratory Animal Technology Co., Ltd.).
Subcutaneous xenograft animal model. The number of cells inoculated subcutaneously vin mice was about 2×10^6/200 μL. When the volume of the subcutaneous tumor was greater than 100 mm^3, the mice were randomly divided into groups and subjected to treatment. When the mass volume of the tumors in model control group reached 2000 mm^3 or the animal dies, the treatment ended. The animals were dissected, the tumors were taken out, and the weight and volume of the tumors were measured. During the period of the entire experiment, the mice were observed and the body weight was measured every other day.
The method used in the efficacy test on the lung cancer subcutaneous xenograft animal model was as described in Example 5. The lung cancer cells were the human lung cancer cells (A549), and the route of administration was intravenous injection. This example involved a total of 3 experiments to evaluate N1-N15, N16-N30, and N31-N54 respectively. The experimental procedure, route of administration, dosage and frequency of administration, and detection method were all consistent in the three experiments. The experimental groups were model control group and polypeptide or derivative thereof treatment groups (N1-N15, N16-N30, or N31-N54). The drug dosage of the N1-N54 treatment groups was 60 mg/kg, and the treatment time was 20 days.

[5] = test system: human liver cancer cells (HepG2); experiment: scratch assay, migration of HepG2 cells; format: cell-based; conditions: HepG2, 10 μM, 48 hours; control group 71.01 ± 6.63
Method: as §1
This example was a scratch assay to evaluate the inhibitory effect of the polypeptide or derivative thereof (N1-N54) on the migration ability of human liver cancer cells (HepG2). The experimental method was as described in Example 2.

[6] = test system: human breast cancer cells (MDA-MB-231); experiment: scratch assay, migration of MDA-MB-231 cells; format: cell-based; conditions: MDA-MB-231, 10 μM, 48 hours; control group 36.19 ± 5.15
Method: as §1
This example was a scratch assay to evaluate the inhibitory effect of the polypeptide or derivative thereof (N1-N54) on the migration ability of human breast cancer cells (MDA-MB-231). The experimental method was as described in Example 2.

[7] = test system: human breast cancer cells (MCF-7); experiment: scratch assay, migration of MCF-7 cells; format: cell-based; conditions: MCF-7, 10 μM, 48 hours; control group 30.97 ± 1.79
Method: as §1
This example was a scratch assay to evaluate the inhibitory effect of the polypeptide or derivative thereof (N1-N54) on the migration ability of human breast cancer cells (MCF-7). The experimental method was as described in Example 2.

[8] = test system: human melanoma cells (A375); experiment: scratch assay, migration of A375 cells; format: cell-based; conditions: A375, 10 μM, 48 hours; control group 44.03 ± 6.21
Method: as §1
This example was a scratch assay to evaluate the inhibitory effect of the polypeptide or derivative thereof (N1-N54) on the migration ability of human melanoma cells (A375). The experimental method was as described in Example 2.

[9] = test system: human pharyngeal squamous-cell carcinoma cells (Fadu); experiment: scratch assay, migration of Fadu cells; format: cell-based; conditions: 10 μM, 48 hours, control group 28.76 ± 4.08
Method: as §1
This example was a scratch assay to evaluate the inhibitory effect of the polypeptide or derivative thereof (N1-N54) on the migration ability of human pharyngeal squamous-cell carcinoma cells (Fadu). The experimental method was as described in Example 2.

[10] = test system: human colon cancer cells (HCT-116); experiment: scratch assay, migration of HCT-116 cells; format: cell-based; conditions: HCT-116, 10 μM, 48 hours; control group 47.78 ± 6.07
Method: as §1
This example was a scratch assay to evaluate the inhibitory effect of the polypeptide or derivative thereof (N1-N54) on the migration ability of human colon cancer cells (HCT-116). The experimental method was as described in Example 2.

[11] = test system: human prostate cancer cells (22RV1); experiment: scratch assay, migration of 22RV1 cells; format: cell-based; conditions: 22RV1, 10 μM, 48 hours; control group 25.41 ± 5.01
Method: as §1
This example was a scratch assay to evaluate the inhibitory effect of the polypeptide or derivative thereof (N1-N54) on the migration ability of human prostate cancer cells (22RV1). The experimental method was as described in Example 2.

Substance	Migration rate (%) (mean ± SD, P) [1]	Migration rate (%) (mean ± SD, P) [2]	Migration rate (%) (mean ± SD, P) [3]	Weight of tumor (g) (mean ± SD) [4]	Volume of tumor (mm^3) (mean ± SD) [4]	Migration rate (%) (mean ± SD, P) [5]	Migration rate (%) (mean ± SD, P) [6]	Migration rate (%) (mean ± SD, P) [7]	Migration rate (%) (mean ± SD, P) [8]	Migration rate (%) (mean ± SD, P) [9]	Migration rate (%) (mean ± SD, P) [10]	Migration rate (%) (mean ± SD, P) [11]
N12: SEQ ID NO: 1 with deletion of position 18 and positions 1-2 (VRFLAKENVTQDAED)	20.05 ± 8.79,** %	28.72 ± 2.96,** %	13.18 ± 6.31,*** %	0.85 ± 0.19 g	1275.34 ± 221.5 mm^3	48.01 ± 5.38,** %	15.41 ± 3.55,** %	11.65 ± 3.32,** %	12.46 ± 3.75,*** %	17.72 ± 2.53,** %	8.14 ± 3.00,*** %	6.61 ± 2.83,** %
N13: SEQ ID NO: 1 with deletion of positions 15-18 and positions 1-5 (LAKENVTQD)	19.37 ± 9.40,** %	21.2 ± 4.41,*** %	11.29 ± 8.97,*** %	0.8 ± 0.17 g	1320.14 ± 147.22 mm^3	45.91 ± 4.70,** %	7.45 ± 2.6,*** %	13.79 ± 2.05,** %	16.28 ± 4.19,** %	9.38 ± 2.46,*** %	12.19 ± 3.22,*** %	9.77 ± 3.66,* %
N30: SEQ ID NO: 1 with deletion of positions 1-5 and 15-18 and PEG modification at the carboxyl terminal (LAKENVTQD-{PEG}; reading uncertain)	24.57 ± 3.19,*** %	33.91 ± 3.36,** %	13.91 ± 7.36,*** %	1.01 ± 0.34 g	1187.13 ± 246.31 mm^3	16.60 ± 7.85,*** %	9.02 ± 2.02,*** %	14.34 ± 4.06,* %	6.96 ± 2.18,*** %	13.85 ± 3.59,** %	12.41 ± 2.99,*** %	10.82 ± 2.55,* %
N52: SEQ ID NO: 1 with N18R, addition of two amino acids and PEG modification at the carboxyl terminal (YRVRFLAKENVTQDAEDRCT-{PEG}; reading uncertain)	56.03 ± 4.21,* %	27.19 ± 5.67,** %	27.19 ± 4.67,*** %	0.7 ± 0.2 g	1425.2 ± 555.76 mm^3	15.39 ± 7.19,*** %	13.19 ± 4.84,** %	7.23 ± 2.41,** %	19.57 ± 2.21,** %	7.76 ± 2.08,*** %	18.71 ± 3.59,** %	5.43 ± 1.97,** %
N23: SEQ ID NO: 1 with substitution A7R, deletion of position 11 and of positions 15-18 (YRVRFLRKENTQDAED)	26.03 ± 4.21,*** %	30.38 ± 4.68,** %	13.24 ± 8.19,*** %	0.65 ± 0.17 g	993.11 ± 298.65 mm^3	17.22 ± 7.12,*** %	14.39 ± 2.33,** %	10.20 ± 2.86,** %	11.13 ± 2.15,*** %	16.93 ± 3.67,* %	13.08 ± 2.64,*** %	5.7 ± 3.23,** %
